According to US7872067B2, “Amphiphilic polymer compositions and their use” (priority 2004, dated 2011):
Values after ≈ are worked out from the molar mass of the structure shown.

Experiment: Solubility of active compounds in distilled water

SMILES: Fc1ccc([C@]2(Cn3cncn3)O[C@H]2c2ccccc2Cl)cc1 (racemic) [epoxyconazole]
- Solubility in distilled water: 6.63 µg/mL (≈ 20.1 µM)
